Data from PubChem BioAssay AID1963424 (Molecular Pharmacology Branch, DTP, NCI, 2024).

Test system: 327498-153-R-J2-PDC complex spheroid growth, % test/control
Assay: Anticancer human tumor 327498-153-R-J2-PDC patient-derived uterine carcinosarcoma cell line growth inhibition [Asc]
Settings: for IC50: curve of first compound; for viability, T/C: stronger effect = lower value
Procedure, shortened: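 Spheroid model: tumor line + HUVEC + hMSC. Single agents and combinations; top conc. at/near clinical Cmax (10 microM if undetermined), half-log dilutions. DMSO stocks at 800-fold test concentration.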

[1] = second compound 0.1 µM, first compound 0.0316 µM
[2] = second compound 0.1 µM, first compound 0.1 µM
[3] = second compound 0.1 µM, first compound 0.316 µM
[4] = second compound 0.1 µM, first compound 1 µM
[5] = second compound 0.316 µM, first compound 0.0316 µM
[6] = second compound 0.316 µM, first compound 0.1 µM
[7] = second compound 0.316 µM, first compound 0.316 µM
[8] = second compound 0.316 µM, first compound 1 µM
[9] = second compound 1 µM, first compound 0.0316 µM
[10] = second compound 1 µM, first compound 0.1 µM
[11] = second compound 1 µM, first compound 0.316 µM
[12] = second compound 1 µM, first compound 1 µM
[13] = second compound 3.16 µM, first compound 0.0316 µM
[14] = second compound 3.16 µM, first compound 0.1 µM
[15] = second compound 3.16 µM, first compound 0.316 µM
[16] = second compound 3.16 µM, first compound 1 µM
[17] = second compound 10 µM, first compound 0.0316 µM
[18] = second compound 10 µM, first compound 0.1 µM
[19] = second compound 10 µM, first compound 0.316 µM
[20] = second compound 10 µM, first compound 1 µM
[21] = second compound 0.1 µM, first compound 0.00316 µM
[22] = second compound 0.1 µM, first compound 0.01 µM
[23] = second compound 0.316 µM, first compound 0.00316 µM
[24] = second compound 0.316 µM, first compound 0.01 µM
[25] = second compound 1 µM, first compound 0.00316 µM
[26] = second compound 1 µM, first compound 0.01 µM
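Further: spheroids exposed to compound for 7 days after 3 days of growth.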
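Wherever viability, T/C is given: 100% = DMSO vehicle control wells.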

C=C(F)C(=O)N1CCN(c2nc(OCC3CCCN3C)nc3c2CCN(c2cccc4cccc(Cl)c24)C3)CC1CC#N (stereo not given) + Cc1c(S(C)(=O)=O)c(-c2cc(F)cc(N3CCN(c4ccc(NS(=O)(=O)c5ccc(NC(CCN6CCC(C(=O)OCCCP(=O)(O)O)CC6)CSc6ccccc6)c(S(=O)(=O)C(F)(F)F)c5)cc4)CC3)c2)c(-c2ccc(Cl)cc2)n1C(C)C
IC50 (second compound 0.1 µM): 756 nM
IC50 (second compound 0.316 µM): 633 nM
IC50 (second compound 1 µM): 546 nM
IC50 (second compound 3.16 µM): 512 nM
IC50 (second compound 10 µM): 1590 nM
viability, T/C [1]: 63%
viability, T/C [2]: 57.9%
viability, T/C [3]: 62.2%
viability, T/C [4]: 46.4%
viability, T/C (second compound 0.1 µM, first compound 3.16 µM): 5.7%
viability, T/C (second compound 0.1 µM, first compound 10 µM): 0.14%
viability, T/C [5]: 66.6%
viability, T/C [6]: 63.4%
viability, T/C [7]: 56%
viability, T/C [8]: 43.6%
viability, T/C (second compound 0.316 µM, first compound 3.16 µM): 3.41%
viability, T/C (second compound 0.316 µM, first compound 10 µM): 0.12%
viability, T/C [9]: 63.9%
viability, T/C [10]: 58.5%
viability, T/C [11]: 55.9%
viability, T/C [12]: 40.8%
viability, T/C (second compound 1 µM, first compound 3.16 µM): 3.33%
viability, T/C (second compound 1 µM, first compound 10 µM): 0.11%
viability, T/C [13]: 68.1%
viability, T/C [14]: 60.1%
viability, T/C [15]: 50.7%
viability, T/C [16]: 41.3%
viability, T/C (second compound 3.16 µM, first compound 3.16 µM): 2.02%
viability, T/C (second compound 3.16 µM, first compound 10 µM): 0.12%
viability, T/C [17]: 164%
viability, T/C [18]: 150%
viability, T/C [19]: 130%
viability, T/C [20]: 82%
viability, T/C (second compound 10 µM, first compound 3.16 µM): 3.02%
viability, T/C (second compound 10 µM, first compound 10 µM): 0.19%

O=C(c1ccc(F)c(F)c1Nc1ccc(I)cc1F)N1CC(O)([C@@H]2CCCCN2)C1 + Cc1c(S(C)(=O)=O)c(-c2cc(F)cc(N3CCN(c4ccc(NS(=O)(=O)c5ccc(NC(CCN6CCC(C(=O)OCCCP(=O)(O)O)CC6)CSc6ccccc6)c(S(=O)(=O)C(F)(F)F)c5)cc4)CC3)c2)c(-c2ccc(Cl)cc2)n1C(C)C
IC50 (second compound 0.1 µM): 277 nM
IC50 (second compound 0.316 µM): 215 nM
IC50 (second compound 1 µM): 196 nM
IC50 (second compound 3.16 µM): 146 nM
IC50 (second compound 10 µM): 458 nM
viability, T/C [21]: 92.1%
viability, T/C [22]: 96.2%
viability, T/C [1]: 81.7%
viability, T/C [2]: 67.3%
viability, T/C [3]: 49%
viability, T/C [4]: 18.4%
viability, T/C [23]: 91.5%
viability, T/C [24]: 80.4%
viability, T/C [5]: 76.9%
viability, T/C [6]: 62.9%
viability, T/C [7]: 44.1%
viability, T/C [8]: 14.6%
viability, T/C [25]: 98.6%
viability, T/C [26]: 80.6%
viability, T/C [9]: 74.5%
viability, T/C [10]: 58.7%
viability, T/C [11]: 49%
viability, T/C [12]: 12.9%
viability, T/C (second compound 3.16 µM, first compound 0.00316 µM): 91.5%
viability, T/C (second compound 3.16 µM, first compound 0.01 µM): 84.9%
viability, T/C [13]: 75.1%
viability, T/C [14]: 56.4%
viability, T/C [15]: 35.9%
viability, T/C [16]: 15.4%
viability, T/C (second compound 10 µM, first compound 0.00316 µM): 170%
viability, T/C (second compound 10 µM, first compound 0.01 µM): 167%
viability, T/C [17]: 131%
viability, T/C [18]: 97.9%
viability, T/C [19]: 70.8%
viability, T/C [20]: 17.1%

Cc1nc(N2CCC3(CC2)COC(C)C3N)c(CO)nc1Sc1ccnc(N)c1Cl (stereo not given) + CCN1C(C(=O)NC23CCC(C(=O)O)(CC2)CC3)C(c2cccc(Cl)c2F)C2(C(=O)Nc3cc(Cl)ccc32)C12CCCCC2
IC50 (second compound 0.03 µM): 242 nM
IC50 (second compound 0.0949 µM): 48.4 nM
IC50 (second compound 0.3 µM): < 9.49 nM
IC50 (second compound 0.949 µM): < 9.49 nM
IC50 (second compound 3 µM): < 9.49 nM
viability, T/C (second compound 0.03 µM, first compound 0.00949 µM): 79.9%
viability, T/C (second compound 0.03 µM, first compound 0.03 µM): 74.8%
viability, T/C (second compound 0.03 µM, first compound 0.0949 µM): 64.1%
viability, T/C (second compound 0.03 µM, first compound 0.3 µM): 44%
viability, T/C (second compound 0.03 µM, first compound 0.949 µM): 41%
viability, T/C (second compound 0.03 µM, first compound 3 µM): 30.3%
viability, T/C (second compound 0.0949 µM, first compound 0.00949 µM): 57%
viability, T/C (second compound 0.0949 µM, first compound 0.03 µM): 58%
viability, T/C (second compound 0.0949 µM, first compound 0.0949 µM): 41.3%
viability, T/C (second compound 0.0949 µM, first compound 0.3 µM): 27.8%
viability, T/C (second compound 0.0949 µM, first compound 0.949 µM): 22.2%
viability, T/C (second compound 0.0949 µM, first compound 3 µM): 15.7%
viability, T/C (second compound 0.3 µM, first compound 0.00949 µM): 30.7%
viability, T/C (second compound 0.3 µM, first compound 0.03 µM): 24.3%
viability, T/C (second compound 0.3 µM, first compound 0.0949 µM): 13.7%
viability, T/C (second compound 0.3 µM, first compound 0.3 µM): 12.3%
viability, T/C (second compound 0.3 µM, first compound 0.949 µM): 8.52%
viability, T/C (second compound 0.3 µM, first compound 3 µM): 6.36%
viability, T/C (second compound 0.949 µM, first compound 0.00949 µM): 6.38%
viability, T/C (second compound 0.949 µM, first compound 0.03 µM): 6.83%
viability, T/C (second compound 0.949 µM, first compound 0.0949 µM): 2.73%
viability, T/C (second compound 0.949 µM, first compound 0.3 µM): 11.8%
viability, T/C (second compound 0.949 µM, first compound 0.949 µM): 2.12%
viability, T/C (second compound 0.949 µM, first compound 3 µM): 2.01%
viability, T/C (second compound 3 µM, first compound 0.00949 µM): 2.07%
viability, T/C (second compound 3 µM, first compound 0.03 µM): 2.17%
viability, T/C (second compound 3 µM, first compound 0.0949 µM): 2.3%
viability, T/C (second compound 3 µM, first compound 0.3 µM): 2.57%
viability, T/C (second compound 3 µM, first compound 0.949 µM): 0.76%
viability, T/C (second compound 3 µM, first compound 3 µM): 0.83%

CCN1CCN(Cc2ccc(Nc3ncc(F)c(-c4cc(F)c5nc(C)n(C(C)C)c5c4)n3)nc2)CC1 + CNC(C)C(=O)NC1CN(S(=O)(=O)c2cccc(S(=O)(=O)N3CCC4CCC(C(=O)NC(c5ccccc5)c5ccccc5)N4C(=O)C(NC(=O)C(C)NC)C3)c2)CCC2CCC(C(=O)NC(c3ccccc3)c3ccccc3)N2C1=O
IC50 (second compound 0.01 µM): > 1000 nM
IC50 (second compound 0.0316 µM): > 1000 nM
IC50 (second compound 0.1 µM): > 1000 nM
IC50 (second compound 0.316 µM): > 1000 nM
IC50 (second compound 1 µM): > 1000 nM
viability, T/C (second compound 0.01 µM, first compound 0.00316 µM): 102%
viability, T/C (second compound 0.01 µM, first compound 0.01 µM): 110%
viability, T/C (second compound 0.01 µM, first compound 0.0316 µM): 97.7%
viability, T/C (second compound 0.01 µM, first compound 0.1 µM): 88.9%
viability, T/C (second compound 0.01 µM, first compound 0.316 µM): 68.7%
viability, T/C (second compound 0.01 µM, first compound 1 µM): 73.8%
viability, T/C (second compound 0.0316 µM, first compound 0.00316 µM): 106%
viability, T/C (second compound 0.0316 µM, first compound 0.01 µM): 104%
viability, T/C (second compound 0.0316 µM, first compound 0.0316 µM): 90.5%
viability, T/C (second compound 0.0316 µM, first compound 0.1 µM): 82.4%
viability, T/C (second compound 0.0316 µM, first compound 0.316 µM): 61.2%
viability, T/C (second compound 0.0316 µM, first compound 1 µM): 65%
viability, T/C [21]: 99.4%
viability, T/C [22]: 104%
viability, T/C [1]: 94%
viability, T/C [2]: 76.7%
viability, T/C [3]: 68%
viability, T/C [4]: 68.2%
viability, T/C [23]: 110%
viability, T/C [24]: 100%
viability, T/C [5]: 95.5%
viability, T/C [6]: 75.9%
viability, T/C [7]: 65.8%
viability, T/C [8]: 64.4%
viability, T/C [25]: 106%
viability, T/C [26]: 115%
viability, T/C [9]: 91.6%
viability, T/C [10]: 82.1%
viability, T/C [11]: 73%
viability, T/C [12]: 54.7%
